In patent publication US20030157573A1, “Use of Axl receptor for diagnosis and treatment of renal disease” (priority 2002, published 2003):
Counter-ions that a name gives are not always drawn.

Legend:
[1] = system: Normal human fetal lung fibroblasts (WI-38); experiment: Fibroblast proliferation assay (neutral red staining); assay type: cell-based; settings: for decrease in fibroblast proliferation: DFO
Description: (§1) Normal human fetal lung fibroblasts (WI-38, Coriell Cell Repositories) were cultured and sub-cultured in DMEM, supplemented with 10% inactivated fetal bovine serum (FBS), 2 mM L-glutamine, 100 U/ml penicillin, 100 μg/ml streptomycin. Fibroblasts were grown to confluence in 25 cm^2 tissue flasks and sub-cultured after trypsinization (0.5% trypsin-EDTA in Hank's balanced solution without Ca^2+ and Mg^2+) at 37° C. in an atmosphere of 5% CO2. Two ml of trypsin were added to each flask and incubated for 5 min; then cultures were centrifuged (5 min, 1000 rpm) and fresh medium was added to the pellet. Splitting conditions were 1:4-1:6.
The proliferation rate of sub-confluent fibroblasts was evaluated by staining with neutral red (BioRad). Fibroblasts were seeded in 96-well plate (6×10^3/well) in 200 μl of supplemented DMEM/10% FBS. After overnight culture, wells were washed twice with supplemented DMEM/20% FBS. Then, either TGF-β (2-20 ng/ml) or deferoxamine mesylate (DFO, which leads to conditions of chemical hypoxia) at a concentration of […] was added in 200 μl of supplemented DMEM/2% FBS for either 16 hours, 24 hours, 72 hours, or 5 days.
In the case of glucose treatments, after overnight culture, cell-containing wells were washed twice with supplemented glucose-free DMEM/2% FBS. Working concentrations of glucose (5.5 mM, 15 mM, 27.5 mM, or 55 mM) were prepared by dissolving stock solution (110 mM) in supplemented DMEM without glucose/2% FBS. Prepared solutions of glucose were added to fibroblast cultures for either 24 or 72 hours.
Upon completion of incubation, cells were stained with 100 μl of 1% neutral red for 2 hours. After washing with cold PBS, fibroblast monolayers were fixed with 200 μl of ethanol-Sorenson buffer solution (1:1) for 10 min. Optical density was measured with an automated spectrophotometer (λ=540 nm).

Ax1 [2] = settings: vascular smooth muscle cells; cited from earlier work
mesangial cells = settings: together with the extracellular domain of Ax1; blockade of the Gas6-mediated pathway; cited from earlier work
Ax1 [3] = experiment: Microarray hybridization of treated human fibroblasts (Fibrosis DNA chip); assay type: cell-based; settings: TGF-β treatment of human fibroblasts
Description: Microarray-based analysis of gene expression was based on the analysis of human fibroblasts subject to selected stimuli resulting in changes in extracellular collagen accumulation and proliferation—the hallmarks of fibrosis. According to the present invention, a specific “Fibrosis” DNA chip was first prepared followed by a microarray hybridization experiments with 19 different types of probes. Analysis of the results was carried out by proprietary algorithms, and analysis of the selected set of genes was performed by using bioinformatics and the scienctific literature.
A dedicated human “Fibrosis” DNA chip was prepared according to assignee's SDGI method (PCT Application Publication No. WO 01/75180) from growth-arrested human fibroblasts.
Probes for microarray hybridization were derived from these treated fibroblasts. In accordance with the present invention, treatments that are relevant for diabetic nephropathy development were used, such as glucose deprivation or hypoxia (modeling ischemic conditions that develop in fibrotic kidney); high glucose (modeling diabetic hyperglycemia) and TGF-β induction (modeling a fibrotic condition that is characterized by growth factor and cytokine imbalance).
In the next step, the RNA from these treated fibroblasts was extracted and used for preparation of probes for microarray hybridization. The scheme of hybridization is presented below: […]

Ax1 [4] = experiment: Western blot analysis of endogenous Ax1 expression after TGF-β stimulation; assay type: cell-based, rat
Description: FIG. 1. […] Lane 1: NRK 49F cells; Lane2: NRK 49F cells with TGF-β 5 ng/ml, 24 hr; Lane 3: Rat1 cells; Lane4: Rat1 cells+TGF-β 5 ng/ml, 24 hr; Lane 5: W138 cells; Lane 6: HeLa cells; Lane 7: 293 cells.
FIG. 2. […] Total cell lysates from Rat1 cells exposed to TGF-β stimulation (5 ng/ml for 15 minutes, 30 minutes, 60 minutes and 2 hours) were run on gel and probed with anti Ax1 C20 Ab (Western blot analysis). Samples in the first and last lane are from cells without TGF-β stimulation.
In order to verify the chip hybridization results, the response of endogenous Ax1 expression to TGF-β stimulation was monitored by Western blot analysis. Total cellular proteins from various cell lines, (of which Rat1 cell line was also stimulated by TGF-β (5 ng/ml for 24 hr) were extracted, and the expression of Ax1 was analyzed by Western blot analysis. Thirty (30) μg of total cellular lysate were run on an 8% SDS gel.
(§2) Further experiments were done on Rat1 cells that were serum starved for 24 hr and then stimulated for the indicated time (15 min-2 hr) with 5 ng/ml TGF-β.

[5] = system: Normal human fetal lung fibroblasts (WI-38); experiment: Collagen production assay ([3H]-proline incorporation into collagenous proteins); assay type: cell-based; settings: concentrations of 2-20 ng/ml
Description: as §1
Collagen production by confluent fibroblast monolayers was assessed by [^3H]-proline incorporation into collagenous proteins. Fibroblasts were seeded in 24-well tissue culture plates (2×10^4/well) and grown in 1 ml of supplemented DMEM/10%FBS until confluence.
Confluent fibroblast cultures were incubated with prepared solutions for either 24 or 48 hr. […] The production of collagen was determined as the difference between total [^3H]proline-containing proteins in the sample incubated without collagenase and those left after collagenase digestion. To determine the number of cells in each well, fibroblasts were detached by trypsinization on the last day of the experiment, and counted in a hemocytometer. […]

Ax1 [6] = experiment: Ax1 immunoprecipitation and anti-phosphotyrosine blot after TGF-β stimulation; assay type: cell-based, rat; settings: serum starved Rat1 cells, 5 ng/ml TGF-β, 15 min-2 hr
Description: FIG. 3. […] Rat1 cells exposed to TGF-β stimulation (5 ng/ml for 15 minutes, 30 minutes, 60 minutes and 2 hours) were used for immunoprecipitation. Ax1 was immunoprecipited with anti Ax1 M-20. Anti phosphotyrosine antibodies were used to monitor ax1 phosphorylation state following TGF-β treatment (5 ng/ml for 15 minutes-2 hr). Samples in the first and last lane are from cells without TGF-β stimulation.
as §2

In the case of CC(=O)N(O)CCCCCNC(=O)CCC(=O)N(O)CCCCCNC(=O)CCC(=O)N(O)CCCCCN [DFO, deferoxamine mesylate], the “decrease in fibroblast proliferation” value ([1]; after 16 hr incubation) is reported as 20% and the “decrease in fibroblast proliferation” value ([1]; after 5 days of treatment) is reported as 80%.
In the case of CCCCc1nc(Cl)c(CO)n1Cc1ccc(-c2ccccc2-c2nn[nH]n2)cc1 [losartan], the “effect on angiotensin-stimulated Ax1 expression” value (Ax1 [2]) is listed as “blocked the stimulatory effect of angiotensin on Ax1 expression”.
For CC(=O)CC(c1ccccc1)c1c(O)c2ccccc2oc1=O (stereo not shown) [wafarin], the mesangial cell proliferation (mesangial cells) is given as “inhibit mesangial cell proliferation”.
For TGF-β, the “induction of Ax1 expression” value (Ax1 [3]) was “at least 2 fold”, the “increase in the fibroblast proliferation rate” value ([1]; 2 and 20 ng/ml, after 24 hrs treatment) was about 60% and the “endogenous Ax1 expression (Western blot)” value (Ax1 [4]; Rat1 cells, TGF-β 5 ng/ml for 24 hr) was “slight up-regulation”. For the same molecule, the “Ax1 protein level (Western blot)” value (Ax1 [4]; serum starved Rat1 cells, 5 ng/ml TGF-β, following 15 min) was “induces Ax1 protein level”, the “enhancement in collagen production” value [5] was 110-180% and the Ax1 phosphorylation (Ax1 [6]) was “Increase in its phosphorylation”.
